Experimental data published in ChEMBL document CHEMBL1138169, “Oxadiazole derivatives as a novel class of antimitotic agents: Synthesis, inhibition of tubulin polymerization, and activity in tumor cell lines” (Bioorg Med Chem Lett, 2006).

Experiments:
NCI/ADR-RES = assay: Cell cycle arrest in NCI/ADR (MDR) cells by accumulation at G2/M phase; assay type: functional, cell-based; conditions: Homo sapiens
A-431 = assay: Cell cycle arrest in A431 cells by accumulation at G2/M phase; assay type: functional, cell-based; conditions: Homo sapiens
Tubulin [1] = assay: Inhibition of tubulin polymerization; assay type: functional, Homo sapiens
[2] = Cmax in mouse at 60 mg/kg, ip; assay type: ADME, organism-based; parameters: dose 60 mg/kg, route intraperitoneal; conditions: in vivo
Tubulin [3] = assay: Displacement of [3H]colchicine from tubulin at 65 nM; assay type: protein-complex assay, Homo sapiens
[4] = Half life in mouse at 60 mg/kg, ip; assay type: ADME, organism-based; parameters: dose 60 mg/kg, route intraperitoneal; conditions: in vivo
[5] = AUC (0-4 h) in mouse at 60 mg/kg, ip; assay type: ADME, organism-based; parameters: time < 4 hr, dose 60 mg/kg, route intraperitoneal; conditions: plasma
[6] = AUC (0-4 h) in mouse at 60 mg/kg, po; assay type: ADME, organism-based; parameters: time < 4 hr, dose 60 mg/kg, route oral; conditions: plasma
[7] = Cmax in mouse at 60 mg/kg, po; assay type: ADME, organism-based; parameters: dose 60 mg/kg, route oral; conditions: in vivo
[8] = Half life in mouse at 60 mg/kg, po; assay type: ADME, organism-based; parameters: dose 60 mg/kg, route oral; conditions: in vivo

EC50 (A-431) [nM] | IC50 (Tubulin [1]) [nM] | Structure (SMILES) | also measured
13 | 700 | c1cncc(CNc2ncccc2-c2nnc(Nc3ccc4c(c3)OCCO4)o2)c1 | Cmax [2]: 6.5 µM; IC50 (Tubulin [3]): 30 nM; EC50 (NCI/ADR-RES): 19 nM; half-life [4]: 0.8 h; AUC(0-t) at 4 h [5]: 6.7 µM·h
 | > 30000 | c1ccc(CNc2ccncc2-c2nnc(Nc3ccc4c(c3)OCCO4)o2)nc1 | 
 | > 30000 | c1ccc(CNc2ccccc2-c2csc(Nc3ccc4c(c3)OCCO4)n2)nc1 | 
35 | 1400 | c1ccc(CNc2ccccc2-c2cnc(Nc3ccc4c(c3)OCCO4)o2)nc1 | Cmax [2]: 4.6 µM; IC50 (Tubulin [3]): 10 nM; EC50 (NCI/ADR-RES): 103 nM; half-life [4]: 2.43 h; AUC(0-t) at 4 h [5]: 14.4 µM·h
 | > 30000 | CN(c1ccc2c(c1)OCCO2)c1nnc(-c2cccnc2NCc2ccccn2)o1 | 
20 | 1500 | COc1ccc(Nc2nnc(-c3cccnc3NCc3ccccn3)o2)cc1 | 
160 | 1700 | c1cnc(NCC2CCCO2)c(-c2nnc(Nc3ccc4c(c3)OCCO4)o2)c1 (centres undefined) | Cmax [2]: 16.4 µM; IC50 (Tubulin [3]): 390 nM; EC50 (NCI/ADR-RES): 128 nM; half-life [4]: 0.78 h; AUC(0-t) at 4 h [5]: 26.3 µM·h
780 | 13300 | FC1(F)Oc2ccc(Nc3nnc(-c4cccnc4NCc4ccccn4)o3)cc2O1 | 
57 | 1800 | c1cnc(NCc2ccc3c(c2)OCCO3)c(-c2nnc(Nc3ccc4c(c3)OCCO4)o2)c1 | 
51 | 2200 | Fc1ccc(CNc2ncccc2-c2nnc(Nc3ccc4c(c3)OCO4)o2)cc1F | 
45 | 2000 | c1coc(CNc2ncccc2-c2nnc(Nc3ccc4c(c3)OCCO4)o2)c1 | 
9 |  | CC(=O)O[C@H]1C(=O)[C@@]2(C)[C@H]([C@H](OC(=O)c3ccccc3)[C@]3(O)C[C@H](OC(=O)[C@H](O)[C@@H](NC(=O)c4ccccc4)c4ccccc4)C(C)=C1C3(C)C)[C@]1(OC(C)=O)CO[C@@H]1C[C@@H]2O [PACLITAXEL] | EC50 (NCI/ADR-RES): > 10000 nM
22 | 4400 | c1ccc(CNc2ccsc2-c2nnc(Nc3ccc4c(c3)OCCO4)o2)nc1 | Cmax [2]: 59.2 µM; IC50 (Tubulin [3]): 75 nM; EC50 (NCI/ADR-RES): 46 nM; half-life [4]: 0.75 h; AUC(0-t) at 4 h [5]: 102 µM·h
 | > 30000 | c1ccc(CNc2ccccc2-c2c[nH]c(Nc3ccc4c(c3)OCCO4)n2)nc1 | 

Further lines, the molecule ahead of its results:

Structure (SMILES) | EC50 (A-431) [nM] | IC50 (Tubulin [1]) [nM] | also measured
COc1ccc(/C=C\c2cc(OC)c(OC)c(OC)c2)cc1O [COMBRETASTATIN A4] | 3.5 |  | EC50 (NCI/ADR-RES): 1.5 nM
c1cnc(NCc2ccncc2)c(-c2nnc(Nc3ccc4c(c3)OCCO4)o2)c1 | 18 | 29900 | 
c1cnc(NCC2CCCO2)c(-c2nnc(Nc3ccc4c(c3)OCO4)o2)c1 (centres undefined) | 330 | 15500 | 
c1cnc(NCc2cnccn2)c(-c2nnc(Nc3ccc4c(c3)OCCO4)o2)c1 | 31 | 2200 | 
c1ccc(COc2ncccc2-c2nnc(Nc3ccc4c(c3)OCCO4)o2)nc1 | 260 | 18100 | 
Fc1cnc(NCc2ccccn2)c(-c2nnc(Nc3ccc4c(c3)OCCO4)o2)c1 | 82 | 3400 | 
c1ccc(CNc2ncncc2-c2nnc(Nc3ccc4c(c3)OCCO4)o2)nc1 |  | > 30000 | 
Fc1ccc(CNc2ncccc2-c2nnc(Nc3ccc4c(c3)OCCO4)o2)cc1 | 60 | 5000 | 
COc1ccc(CNc2ncccc2-c2nnc(Nc3ccc4c(c3)OCCO4)o2)cc1 | 23 | 1600 | 
c1cncc(CNc2ncccc2-c2nnc(Nc3ccc4c(c3)OCO4)o2)c1 | 31 | 8800 | 
c1cnc(NCc2cnccn2)c(-c2nnc(Nc3ccc4c(c3)OCO4)o2)c1 | 210 | 9600 | 
c1coc(CNc2ncccc2-c2nnc(Nc3ccc4c(c3)OCO4)o2)c1 | 130 | 4900 | 
c1ccc(CNc2ccccc2-c2nnc(Nc3ccc4c(c3)OCCO4)o2)nc1 | 14 | 1200 | Cmax [2]: 6.4 µM; IC50 (Tubulin [3]): 390 nM; EC50 (NCI/ADR-RES): 37 nM; half-life [4]: 1.5 h; AUC(0-t) at 4 h [5]: 17.2 µM·h
c1ccc(CNc2nccnc2-c2nnc(Nc3ccc4c(c3)OCCO4)o2)nc1 | 75 | 2000 | 
c1ccc(CNc2ncccc2-c2nnc(Nc3ccc4c(c3)OCCO4)o2)nc1 | 16 | 1900 | AUC(0-t) at 4 h [6]: 8.8 µM·h; Cmax [7]: 3.8 µM; Cmax [2]: 12.5 µM; IC50 (Tubulin [3]): 190 nM; EC50 (NCI/ADR-RES): 27 nM; half-life [4]: 2.7 h; AUC(0-t) at 4 h [5]: 31.2 µM·h; half-life [8]: 2.2 h
c1cnc(NCc2ccc3c(c2)OCO3)c(-c2nnc(Nc3ccc4c(c3)OCCO4)o2)c1 | 18 | 500 | 
Fc1ccc(CNc2ncccc2-c2nnc(Nc3ccc4c(c3)OCCO4)o2)cc1F | 15 | 700 | 
c1ccc(CNc2ncccc2-c2nnc(Nc3ccc4c(c3)OCO4)o2)nc1 | 49 | 1700 | Cmax [2]: 4.9 µM; IC50 (Tubulin [3]): 30 nM; EC50 (NCI/ADR-RES): 256 nM; half-life [4]: 4.1 h; AUC(0-t) at 4 h [5]: 21.5 µM·h
c1cnc(NCc2ccncc2)c(-c2nnc(Nc3ccc4c(c3)OCO4)o2)c1 | 20 | 1000 | Cmax [2]: 15.1 µM; IC50 (Tubulin [3]): 30 nM; EC50 (NCI/ADR-RES): 7.8 nM; half-life [4]: 2.6 h; AUC(0-t) at 4 h [5]: 52.6 µM·h
CS(=O)(=O)Nc1ccc(CNc2ncccc2-c2nnc(Nc3ccc4c(c3)OCO4)o2)cc1 | 71 | 3800 | 
Cc1ccc(-c2nnc(Nc3ccc4c(c3)OCCO4)o2)c(NCc2ccccn2)n1 | 99 | 2400 | 
COc1cc(Nc2ncccc2-c2n[nH]c(Nc3ccc4c(c3)OCO4)n2)cc(OC)c1 |  |  | Cmax [2]: 7.3 µM; half-life [4]: 0.62 h; AUC(0-t) at 4 h [5]: 13.6 µM·h
FC(F)(F)c1ccc(-c2nnc(Nc3ccc4c(c3)OCCO4)o2)c(NCc2ccccn2)n1 |  | > 30000 | 
CS(=O)(=O)Nc1ccc(CNc2ncccc2-c2nnc(Nc3ccc4c(c3)OCCO4)o2)cc1 | 23 | 2000 | 
